“And” between values parts separate entries of the source, which are not always exact repeats. Equal entries are not always repeated.
Key:
[1] = molecular target: ABL1 (Homo sapiens, UniProt P00519); test: in vitro kinase assay; type: biochemical
Description: (§1) Specifically, against a panel of 210 kinases representative of the human kinome, the compounds tested inhibited by […] the activity of 25 of them in in Vitro assays (Table 1).
(§2) The IC50 was determined for the most sensitive kinases to compound 10, obtaining values for said parameter, largely in the micromolar range. For this purpose, the 25 kinases inhibited more than 80% by the compound in in vitro assays were selected.

[2] = molecular target: ACK1 (Homo sapiens, UniProt Q07912); test: in vitro kinase assay; type: biochemical
Description: as §1, §2

[3] = molecular target: CDK4/CycD3 (Homo sapiens, UniProt P11802); test: in vitro kinase assay; type: biochemical
Description: as §1, §2

[4] = molecular target: CDK5/p25NCK (Homo sapiens, UniProt Q00535); test: in vitro kinase assay; type: biochemical
Description: as §1, §2

[5] = molecular target: CDK7/CycH/Mat1 (Homo sapiens, UniProt P50613); test: in vitro kinase assay; type: biochemical
Description: as §1, §2

[6] = molecular target: CDK9/CycT (Homo sapiens, UniProt P50750); test: in vitro kinase assay; type: biochemical
Description: as §1, §2

[7] = molecular target: CHK1 (Homo sapiens, UniProt O14757); test: in vitro kinase assay; type: biochemical
Description: as §1, §2

[8] = molecular target: CSK (Homo sapiens, UniProt P41240); test: in vitro kinase assay; type: biochemical
Description: as §1, §2

[9] = molecular target: FGF-R1 VM (Homo sapiens, UniProt P11362, V561M); test: in vitro kinase assay; type: biochemical
Description: as §1, §2

[10] = molecular target: FGF-R2 (Homo sapiens, UniProt P21802); test: in vitro kinase assay; type: biochemical
Description: as §1, §2

[11] = molecular target: MET (Homo sapiens, UniProt P08581); test: in vitro kinase assay; type: biochemical
Description: as §1, §2

[12] = molecular target: MUSK (Homo sapiens, UniProt O15146); test: in vitro kinase assay; type: biochemical
Description: as §1, §2

[13] = molecular target: NLK (Homo sapiens, UniProt Q9UBE8); test: in vitro kinase assay; type: biochemical
Description: as §1, §2

[14] = molecular target: PAK4 (Homo sapiens, UniProt O96013); test: in vitro kinase assay; type: biochemical
Description: as §1, §2

[15] = molecular target: PAK7 (Homo sapiens, UniProt Q9P286); test: in vitro kinase assay; type: biochemical
Description: as §1, §2

[16] = molecular target: PKC-alpha (Homo sapiens, UniProt P17252); test: in vitro kinase assay; type: biochemical
Description: as §1, §2

[17] = molecular target: PKC-beta1 (Homo sapiens, UniProt P05771); test: in vitro kinase assay; type: biochemical
Description: as §1, §2

[18] = molecular target: PKC-gamma (Homo sapiens, UniProt P05129); test: in vitro kinase assay; type: biochemical
Description: as §1, §2

[19] = molecular target: PLK1 (Homo sapiens, UniProt P53350); test: in vitro kinase assay; type: biochemical
Description: as §1, §2

[20] = molecular target: S6K (Homo sapiens, UniProt P23443); test: in vitro kinase assay; type: biochemical
Description: as §1, §2

[21] = molecular target: TGFB-R1 (Homo sapiens, UniProt P36897); test: in vitro kinase assay; type: biochemical
Description: as §1, §2

[22] = molecular target: TRK-C (Homo sapiens, UniProt Q16288); test: in vitro kinase assay; type: biochemical
Description: as §1, §2

[23] = molecular target: VRK1 (Homo sapiens, UniProt Q99986); test: in vitro kinase assay; type: biochemical
Description: as §1, §2

[24] = test system: A-498 (Renal); test: NCI60 panel IC50; type: cell-based; details: Homo sapiens, A498
Description: (§3) On the other hand, the values of IC50 were determined in the panel of NCl60 cell lines for compound 10.
(§4) A total of 2 independent experiments were carried out with assays in triplicate for the compound and cell line. All those assays where an IC50 value was not reached in the highest concentration of 1E-05 M are represented by “>1E-05”. In these cases, the standard deviation cannot be calculated and for that reason it is calculated as “-”.

[25] = test system: DU-145 (Prostate); test: NCI60 panel IC50; type: cell-based; details: Homo sapiens
Description: as §3, §4

[26] = test system: EKVX (Lung); test: NCI60 panel IC50; type: cell-based; details: Homo sapiens
Description: as §3, §4

[27] = test system: SF-295 (CNS); test: NCI60 panel IC50; type: cell-based; details: Homo sapiens
Description: as §3, §4

[28] = test system: SK-MEL-5 (Melanoma); test: NCI60 panel IC50; type: cell-based; details: Homo sapiens
Description: as §3, §4

[29] = test system: Sw-620 (Colon); test: NCI60 panel IC50; type: cell-based; details: Homo sapiens
Description: as §3, §4

[30] = test system: 786-O (Renal); test: NCI60 panel IC50; type: cell-based, human
Description: as §3, §4

[31] = test system: LOX-IMVI (Melanoma); test: NCI60 panel IC50; type: cell-based, human
Description: as §3, §4

[32] = test system: NCI-H522 (Lung); test: NCI60 panel IC50; type: cell-based, human; details: lung NCl-H522
Description: as §3, §4

[33] = test system: OVCAR-5 (Ovarian); test: NCI60 panel IC50; type: cell-based, human
Description: as §3, §4

[34] = test system: OVCAR-8 (Ovarian); test: NCI60 panel IC50; type: cell-based, human
Description: as §3, §4

[35] = test system: SK-MEL-28 (Melanoma); test: NCI60 panel IC50; type: cell-based, human
Description: as §3, §4

CDK9/CycT, sequence (P50750 whole entry): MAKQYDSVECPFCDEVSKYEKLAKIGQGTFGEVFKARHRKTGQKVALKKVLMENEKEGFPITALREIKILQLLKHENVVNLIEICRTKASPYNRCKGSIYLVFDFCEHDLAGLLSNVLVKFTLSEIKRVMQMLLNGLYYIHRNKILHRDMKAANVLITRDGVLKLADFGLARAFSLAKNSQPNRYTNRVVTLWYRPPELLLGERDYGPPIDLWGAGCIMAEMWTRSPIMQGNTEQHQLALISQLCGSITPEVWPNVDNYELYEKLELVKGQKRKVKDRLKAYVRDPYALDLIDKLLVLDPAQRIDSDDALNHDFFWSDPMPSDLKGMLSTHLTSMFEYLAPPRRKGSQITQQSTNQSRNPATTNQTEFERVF
CDK9/CycT, sequence (O60563 whole entry partner): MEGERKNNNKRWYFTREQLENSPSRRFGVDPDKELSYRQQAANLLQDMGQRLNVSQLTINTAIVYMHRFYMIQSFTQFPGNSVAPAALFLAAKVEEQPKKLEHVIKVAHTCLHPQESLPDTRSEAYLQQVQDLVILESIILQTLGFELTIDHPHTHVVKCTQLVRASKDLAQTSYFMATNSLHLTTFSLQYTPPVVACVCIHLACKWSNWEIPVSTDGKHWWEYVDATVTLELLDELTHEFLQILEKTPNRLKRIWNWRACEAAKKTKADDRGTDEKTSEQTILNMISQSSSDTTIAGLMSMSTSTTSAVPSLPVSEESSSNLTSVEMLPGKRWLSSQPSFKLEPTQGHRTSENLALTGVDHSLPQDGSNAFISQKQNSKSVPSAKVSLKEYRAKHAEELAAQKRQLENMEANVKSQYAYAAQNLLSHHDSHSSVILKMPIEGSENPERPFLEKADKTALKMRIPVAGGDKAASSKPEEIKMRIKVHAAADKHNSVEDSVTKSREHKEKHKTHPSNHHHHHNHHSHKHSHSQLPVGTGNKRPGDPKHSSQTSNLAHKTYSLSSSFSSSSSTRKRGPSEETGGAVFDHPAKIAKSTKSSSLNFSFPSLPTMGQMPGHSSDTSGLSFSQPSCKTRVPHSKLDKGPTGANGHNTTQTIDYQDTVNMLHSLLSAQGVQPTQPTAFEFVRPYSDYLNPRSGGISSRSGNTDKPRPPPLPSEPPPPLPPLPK
CDK4/CycD3, sequence (P11802 whole entry): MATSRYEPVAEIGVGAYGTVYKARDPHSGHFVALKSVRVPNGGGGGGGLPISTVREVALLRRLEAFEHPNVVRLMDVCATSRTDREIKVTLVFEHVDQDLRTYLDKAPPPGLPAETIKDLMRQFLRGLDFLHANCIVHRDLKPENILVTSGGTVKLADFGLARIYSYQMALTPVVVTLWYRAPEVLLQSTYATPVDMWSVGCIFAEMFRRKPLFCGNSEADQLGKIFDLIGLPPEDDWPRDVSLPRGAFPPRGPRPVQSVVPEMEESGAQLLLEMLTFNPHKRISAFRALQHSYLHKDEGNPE
CDK4/CycD3, sequence (P30281 whole entry partner): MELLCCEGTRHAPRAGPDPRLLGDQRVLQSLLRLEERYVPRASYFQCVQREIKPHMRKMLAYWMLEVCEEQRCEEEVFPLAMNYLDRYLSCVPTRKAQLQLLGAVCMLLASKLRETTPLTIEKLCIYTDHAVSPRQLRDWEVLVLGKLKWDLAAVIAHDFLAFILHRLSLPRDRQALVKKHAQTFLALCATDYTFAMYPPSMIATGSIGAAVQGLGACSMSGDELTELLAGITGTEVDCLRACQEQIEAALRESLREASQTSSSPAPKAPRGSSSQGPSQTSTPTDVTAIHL
CDK5/p25NCK, sequence (Q00535 whole entry): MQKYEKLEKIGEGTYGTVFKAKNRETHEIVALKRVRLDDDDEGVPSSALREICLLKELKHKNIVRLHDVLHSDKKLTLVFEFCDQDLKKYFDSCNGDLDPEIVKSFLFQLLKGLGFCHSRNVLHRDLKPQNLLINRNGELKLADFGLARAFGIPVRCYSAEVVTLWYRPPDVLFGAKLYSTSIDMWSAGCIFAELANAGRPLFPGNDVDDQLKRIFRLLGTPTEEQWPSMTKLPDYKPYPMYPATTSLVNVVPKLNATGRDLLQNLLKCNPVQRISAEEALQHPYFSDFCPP
CDK5/p25NCK, sequence (Q15078 99-307 partner limits assumed): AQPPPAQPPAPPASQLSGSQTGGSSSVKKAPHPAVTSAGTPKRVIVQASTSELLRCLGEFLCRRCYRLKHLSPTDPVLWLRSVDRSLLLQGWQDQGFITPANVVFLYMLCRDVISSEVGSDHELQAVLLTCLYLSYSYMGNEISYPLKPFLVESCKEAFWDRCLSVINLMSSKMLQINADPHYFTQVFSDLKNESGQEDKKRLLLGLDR
TRK-C, sequence (Q16288 32-839): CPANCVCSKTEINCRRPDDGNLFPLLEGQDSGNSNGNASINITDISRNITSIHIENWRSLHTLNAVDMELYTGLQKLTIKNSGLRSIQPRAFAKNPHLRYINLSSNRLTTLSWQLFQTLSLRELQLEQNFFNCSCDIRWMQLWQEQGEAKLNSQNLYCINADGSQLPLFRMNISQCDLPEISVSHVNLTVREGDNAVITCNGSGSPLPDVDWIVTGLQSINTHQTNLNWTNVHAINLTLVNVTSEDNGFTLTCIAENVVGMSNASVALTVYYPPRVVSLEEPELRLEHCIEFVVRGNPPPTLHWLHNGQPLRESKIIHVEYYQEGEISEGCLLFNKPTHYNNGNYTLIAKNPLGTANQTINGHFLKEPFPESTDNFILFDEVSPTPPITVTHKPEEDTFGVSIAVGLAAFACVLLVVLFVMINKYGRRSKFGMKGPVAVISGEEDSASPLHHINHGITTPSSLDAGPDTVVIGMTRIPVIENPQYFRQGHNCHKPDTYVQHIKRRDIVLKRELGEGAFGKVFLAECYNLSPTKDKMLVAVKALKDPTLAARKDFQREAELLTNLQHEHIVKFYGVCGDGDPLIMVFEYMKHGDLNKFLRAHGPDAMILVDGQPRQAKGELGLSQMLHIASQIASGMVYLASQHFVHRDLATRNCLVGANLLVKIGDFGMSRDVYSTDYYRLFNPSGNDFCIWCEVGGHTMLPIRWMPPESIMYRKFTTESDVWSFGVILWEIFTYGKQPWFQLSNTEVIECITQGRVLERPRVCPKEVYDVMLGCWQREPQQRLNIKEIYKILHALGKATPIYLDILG
PLK1, sequence (P53350 whole entry): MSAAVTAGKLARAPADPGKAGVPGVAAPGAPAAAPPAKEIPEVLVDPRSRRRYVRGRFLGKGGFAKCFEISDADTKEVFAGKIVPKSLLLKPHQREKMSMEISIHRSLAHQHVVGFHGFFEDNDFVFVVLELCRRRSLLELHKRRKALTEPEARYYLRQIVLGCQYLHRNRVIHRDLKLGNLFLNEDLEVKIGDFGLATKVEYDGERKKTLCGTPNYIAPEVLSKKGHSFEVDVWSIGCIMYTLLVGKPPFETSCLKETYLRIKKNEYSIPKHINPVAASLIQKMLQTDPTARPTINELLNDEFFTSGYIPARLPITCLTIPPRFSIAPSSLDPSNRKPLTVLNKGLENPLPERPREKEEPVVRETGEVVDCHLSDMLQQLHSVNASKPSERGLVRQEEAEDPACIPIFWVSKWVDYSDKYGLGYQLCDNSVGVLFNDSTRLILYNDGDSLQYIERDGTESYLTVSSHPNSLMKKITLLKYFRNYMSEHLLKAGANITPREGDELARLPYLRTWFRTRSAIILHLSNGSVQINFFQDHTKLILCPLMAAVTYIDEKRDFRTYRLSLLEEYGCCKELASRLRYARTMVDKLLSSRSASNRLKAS
VRK1, sequence (Q99986 whole entry): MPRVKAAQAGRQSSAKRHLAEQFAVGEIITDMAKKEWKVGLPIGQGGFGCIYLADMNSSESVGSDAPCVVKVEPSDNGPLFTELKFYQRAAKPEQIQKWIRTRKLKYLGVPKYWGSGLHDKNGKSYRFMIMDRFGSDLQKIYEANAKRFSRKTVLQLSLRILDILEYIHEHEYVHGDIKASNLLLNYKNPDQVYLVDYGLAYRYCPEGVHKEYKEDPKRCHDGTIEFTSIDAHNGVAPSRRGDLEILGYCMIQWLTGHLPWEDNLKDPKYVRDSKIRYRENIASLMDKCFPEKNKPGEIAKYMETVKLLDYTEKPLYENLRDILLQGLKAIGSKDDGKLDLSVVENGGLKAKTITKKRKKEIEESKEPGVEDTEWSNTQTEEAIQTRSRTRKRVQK

IC50 [1]: 5.4 µM | inhibition of kinase Ack1 [2]: 85% | IC50 [3]: 5.4 µM and 5.3 µM | inhibition of kinase cdk5 ([4]; in vitro kinase assay): 80% | IC50 ([4]; kinase CDK5/p25NCK, in vitro): 9.2 µM | IC50 [5]: 28 µM | inhibition of kinase cdk9 ([6]; in vitro kinase assay): 87% | IC50 ([6]; kinase CDK9/CycT, in vitro): 3.7 µM | IC50 [7]: 1.4 µM | IC50 [8]: 13 µM and 7.2 µM | IC50 [9]: 2.6 µM | IC50 [10]: 5.4 µM | IC50 [11]: 3.7 µM | IC50 [12]: 1.5 µM | IC50 [13]: 4.3 µM | IC50 [14]: 4.3 µM | IC50 [15]: 4.9 µM | IC50 [16]: 2.3 µM | IC50 [17]: 7.6 µM | IC50 [18]: 5.8 µM and 4.9 µM | IC50 [19]: 26 µM | IC50 [20]: 4.4 µM | IC50 [21]: 3.3 µM | IC50 [22]: 7.2 µM and 6.6 µM | IC50 [23]: 2.4 µM
Structure (SMILES): CN1CCCNc2c(c(=O)c2=O)NCCCN(C)CCCNc2c(c(=O)c2=O)NCCCN(C)CCCNc2c(c(=O)c2=O)NCCCN(C)CCCNc2c(c(=O)c2=O)NCCCN(C)CCCNc2c(c(=O)c2=O)NCCC1 [Compound 10]
IC50 [24]: 7.5 µM | IC50 [25]: 1.8 µM | IC50 [26]: 2.75 µM | IC50 [27]: 5.52 µM | IC50 [28]: 2.75 µM | IC50 [29]: 9.41 µM | IC50 ([30]; Homo sapiens, 786-0, 786-O (Renal), NCI60 panel, highest concentration 1E-05 M): > 10 µM | sensitivity of the line to the tested compound ([30]; renal 786-O): resistant | IC50 ([31]; Homo sapiens, LOX-IMVI (Melanoma), NCI60 panel, highest concentration 1E-05 M): > 10 µM | sensitivity of the line to the tested compound ([31]; melanoma LOX-IMVI): resistant | sensitivity of the line to the tested compound [32]: resistant | IC50 ([33]; Homo sapiens, OVCAR-5 (Ovarian), NCI60 panel, highest concentration 1E-05 M): > 10 µM | sensitivity of the line to the tested compound ([33]; ovarian OVCAR-5): resistant | IC50 ([34]; Homo sapiens, OVCAR-8 (Ovarian), NCI60 panel, highest concentration 1E-05 M): > 10 µM | sensitivity of the line to the tested compound ([34]; ovarian OVCAR-8): resistant | IC50 ([35]; Homo sapiens, SK-MEL-28 (Melanoma), NCI60 panel, highest concentration 1E-05 M): > 10 µM | sensitivity of the line to the tested compound ([35]; melanoma SK-MEL-28): resistant

From patent publication US20110294772A1, “USE OF CYCLOSQUARAMIDE COMPOUNDS AS ANTI-TUMOUR AGENTS” (priority 2008, published 2011)
